Results published in patent US20230143604A1, “QW DOSING OF GIP RECEPTOR AGONIST PEPTIDE COMPOUNDS AND USES THEREOF” (TAKEDA PHARMACEUTICAL COMPANY LIMITED, priority 2020, published 2023).
Starred links: 1 amine or outer side, 2 acyl side, 3 side chain; linkers in the order of their positions; H or OH if unused. Non-standard residues stand in square brackets, D forms with d. Residues, ends and D or L forms follow the SMILES beside them. Groups on a side chain read outwards from the residue. *: point of attachment. C20 diacid = O=C(O)CCCCCCCCCCCCCCCCCCC(=O)*; C17 diacid = O=C(O)CCCCCCCCCCCCCCCC(=O)*; γGlu = O=C(O)[C@H](CCC(=O)[*:2])N[*:1]; NMeY = CN[C@@H](Cc1ccc(O)cc1)C(=O)O; AEEA = NCCOCCOCC(=O)O; Aib = CC(C)(N)C(=O)O

Assay: physchem
Conditions: pH 7.4, aqueous buffer
Procedure, shortened: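 Solubility at pH 7.4 determined by stepwise addition of 200 mM phosphate buffer in 100 μL increments to 3 mg peptide, mixing briefly each time, until no insoluble material remained, then measured by liquid chromatography.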

[1] = pH 7.4 Phosphate Buffer - Solubility, 200 mM Phosphate buffer pH 7.4

SMILES	solubility [1] [mg/mL]	other results
CC[C@H](C)[C@H](NC(=O)[C@H](Cc1ccccc1)NC(=O)[C@@H](NC(=O)CNC(=O)[C@H](CCC(=O)O)NC(=O)C(C)(C)NC(=O)[C@H](Cc1ccc(O)cc1)NC)[C@@H](C)O)C(=O)N[C@@H](CO)C(=O)N[C@@H](CC(=O)O)C(=O)N[C@@H](Cc1ccc(O)cc1)C(=O)N[C@@H](CO)C(=O)N[C@H](C(=O)NC(C)(C)C(=O)N[C@@H](CC(C)C)C(=O)N[C@@H](CC(=O)O)C(=O)N[C@@H](CCCNC(=N)N)C(=O)N[C@@H](CCCCNC(=O)COCCOCCNC(=O)COCCOCCNC(=O)CC[C@H](NC(=O)CC[C@H](NC(=O)CCCCCCCCCCCCCCCC(=O)O)C(=O)O)C(=O)O)C(=O)N[C@@H](C)C(=O)N[C@@H](CCC(N)=O)C(=O)NC(C)(C)C(=O)N[C@@H](CC(N)=O)C(=O)N[C@@H](Cc1ccccc1)C(=O)N[C@H](C(=O)N[C@@H](CC(N)=O)C(=O)N[C@@H](Cc1c[nH]c2ccccc12)C(=O)N[C@@H](CC(C)C)C(=O)N[C@@H](CC(C)C)C(=O)N[C@@H](C)C(=O)N[C@@H](CCC(N)=O)C(=O)N[C@@H](CCCNC(=N)N)C(=O)NCC(=O)NCC(=O)NCC(=O)NCC(=O)N[C@@H](CO)C(N)=O)C(C)C)[C@@H](C)CC [Compound 271] (H-[NMeY][Aib]EGTFISDYSI[Aib]LDRK([AEEA-AEEA-γGlu-γGlu-C17 diacid])AQ[Aib]NFVNWLLAQRGGGGS-NH2)	–	solubility: ≥ 6 mg/mL
CC[C@H](C)[C@H](NC(=O)[C@H](CO)NC(=O)[C@H](Cc1ccc(O)cc1)NC(=O)[C@H](CC(=O)O)NC(=O)[C@H](CO)NC(=O)[C@@H](NC(=O)[C@H](Cc1ccccc1)NC(=O)[C@@H](NC(=O)CNC(=O)[C@H](CCC(=O)O)NC(=O)C(C)(C)NC(=O)[C@H](Cc1ccc(O)cc1)NC)[C@@H](C)O)[C@@H](C)CC)C(=O)N[C@@H](C)C(=O)N[C@@H](CC(C)C)C(=O)N[C@@H](CC(=O)O)C(=O)N[C@@H](CCCNC(=N)N)C(=O)NC(C)(C)C(=O)N[C@@H](C)C(=O)N[C@@H](CCC(N)=O)C(=O)NC(C)(C)C(=O)N[C@@H](CCCCNC(=O)COCCOCCNC(=O)COCCOCCNC(=O)CC[C@H](NC(=O)CC[C@H](NC(=O)CCCCCCCCCCCCCCCCCCC(=O)O)C(=O)O)C(=O)O)C(=O)N[C@@H](Cc1ccccc1)C(=O)N[C@H](C(=O)N[C@@H](CC(N)=O)C(=O)N[C@@H](Cc1c[nH]c2ccccc12)C(=O)N[C@@H](CC(C)C)C(=O)N[C@@H](CC(C)C)C(=O)N[C@@H](C)C(=O)N[C@@H](CCC(N)=O)C(=O)N[C@@H](CCCNC(=N)N)C(N)=O)C(C)C [Compound 272] (H-[NMeY][Aib]EGTFISDYSIALDR[Aib]AQ[Aib]K([AEEA-AEEA-γGlu-γGlu-C20 diacid])FVNWLLAQR-NH2)	–	solubility: ≥ 7.5 mg/mL
CC[C@H](C)[C@H](NC(=O)[C@H](CO)NC(=O)[C@H](Cc1ccc(O)cc1)NC(=O)[C@H](CC(=O)O)NC(=O)[C@H](CO)NC(=O)[C@@H](NC(=O)[C@H](Cc1ccccc1)NC(=O)[C@@H](NC(=O)CNC(=O)[C@H](CCC(=O)O)NC(=O)C(C)(C)NC(=O)[C@H](Cc1ccc(O)cc1)NC)[C@@H](C)O)[C@@H](C)CC)C(=O)N[C@@H](C)C(=O)N[C@@H](CCCCNC(=O)CNC(=O)CNC(=O)CNC(=O)CNC(=O)CNC(=O)CCCCCCCCCCCCCCCCC(=O)O)C(=O)N[C@@H](CC(=O)O)C(=O)N[C@@H](CCCNC(=N)N)C(=O)NC(C)(C)C(=O)N[C@@H](C)C(=O)N[C@@H](CCC(N)=O)C(=O)NC(C)(C)C(=O)N[C@@H](CC(N)=O)C(=O)N[C@@H](Cc1ccccc1)C(=O)N[C@H](C(=O)N[C@@H](CC(N)=O)C(=O)N[C@@H](Cc1c[nH]c2ccccc12)C(=O)N[C@@H](CC(C)C)C(=O)N[C@@H](CC(C)C)C(=O)N[C@@H](C)C(=O)N[C@@H](CCC(N)=O)C(=O)N[C@@H](CO)C(=O)N1CCC[C@H]1C(=O)N[C@@H](CO)C(=O)N[C@@H](CO)C(=O)NCC(=O)N[C@@H](C)C(=O)N1CCC[C@H]1C(=O)N1CCC[C@H]1C(=O)N1CCC[C@H]1C(=O)N[C@@H](CO)C(N)=O)C(C)C [Compound 273]	≥ 6	–
CC[C@H](C)[C@H](NC(=O)[C@H](CO)NC(=O)[C@H](Cc1ccc(O)cc1)NC(=O)[C@H](CC(=O)O)NC(=O)[C@H](CO)NC(=O)[C@@H](NC(=O)[C@H](Cc1ccccc1)NC(=O)[C@@H](NC(=O)CNC(=O)[C@H](CCC(=O)O)NC(=O)C(C)(C)NC(=O)[C@H](Cc1ccc(O)cc1)NC)[C@@H](C)O)[C@@H](C)CC)C(=O)N[C@@H](C)C(=O)N[C@@H](CCCCNC(=O)CNC(=O)CNC(=O)CNC(=O)CNC(=O)CNC(=O)CCCCCCCCCCCCCCCCC(=O)O)C(=O)N[C@@H](CC(=O)O)C(=O)N[C@@H](CCCNC(=N)N)C(=O)NC(C)(C)C(=O)N[C@@H](C)C(=O)N[C@@H](CCC(N)=O)C(=O)NC(C)(C)C(=O)N[C@@H](CC(=O)O)C(=O)N[C@@H](Cc1ccccc1)C(=O)N[C@H](C(=O)N[C@@H](CC(N)=O)C(=O)N[C@@H](Cc1c[nH]c2ccccc12)C(=O)N[C@@H](CC(C)C)C(=O)N[C@@H](CC(C)C)C(=O)N[C@@H](C)C(=O)N[C@@H](CCC(N)=O)C(=O)N[C@@H](CCCNC(=N)N)C(=O)N1CCC[C@H]1C(=O)N[C@@H](CO)C(=O)N[C@@H](CO)C(=O)NCC(=O)N[C@@H](C)C(=O)N1CCC[C@H]1C(=O)N1CCC[C@H]1C(=O)N1CCC[C@H]1C(=O)N[C@@H](CO)C(N)=O)C(C)C [Compound 274]	≥ 10	–
CC[C@H](C)[C@H](NC(=O)[C@H](Cc1ccccc1)NC(=O)[C@@H](NC(=O)CNC(=O)[C@H](CCC(=O)O)NC(=O)C(C)(C)NC(=O)[C@H](Cc1ccc(O)cc1)NC)[C@@H](C)O)C(=O)N[C@@H](CO)C(=O)N[C@@H](CC(=O)O)C(=O)N[C@@H](Cc1ccc(O)cc1)C(=O)N[C@@H](CO)C(=O)N[C@H](C(=O)NC(C)(C)C(=O)N[C@@H](CCCCNC(=O)CNC(=O)CNC(=O)CNC(=O)CNC(=O)CNC(=O)CCCCCCCCCCCCCCCCC(=O)O)C(=O)N[C@@H](CC(=O)O)C(=O)N[C@@H](CCCNC(=N)N)C(=O)NC(C)(C)C(=O)N[C@@H](C)C(=O)N[C@@H](CCC(N)=O)C(=O)NC(C)(C)C(=O)N[C@@H](CC(N)=O)C(=O)N[C@@H](Cc1ccccc1)C(=O)N[C@H](C(=O)N[C@@H](CC(N)=O)C(=O)N[C@@H](Cc1c[nH]c2ccccc12)C(=O)N[C@@H](CC(C)C)C(=O)N[C@@H](CC(C)C)C(=O)N[C@@H](C)C(=O)N[C@@H](CCC(N)=O)C(=O)N[C@@H](CO)C(=O)N1CCC[C@H]1C(=O)N[C@@H](CO)C(=O)N[C@@H](CO)C(=O)NCC(=O)N[C@@H](C)C(=O)N1CCC[C@H]1C(=O)N1CCC[C@H]1C(=O)N1CCC[C@H]1C(=O)N[C@@H](CO)C(N)=O)C(C)C)[C@@H](C)CC [Compound 275]	< 15	–
CC[C@H](C)[C@H](NC(=O)[C@H](Cc1ccccc1)NC(=O)[C@@H](NC(=O)CNC(=O)[C@H](CCC(=O)O)NC(=O)C(C)(C)NC(=O)[C@H](Cc1ccc(O)cc1)NC)[C@@H](C)O)C(=O)N[C@@H](CO)C(=O)N[C@@H](CC(=O)O)C(=O)N[C@@H](Cc1ccc(O)cc1)C(=O)N[C@@H](CO)C(=O)N[C@H](C(=O)NC(C)(C)C(=O)N[C@@H](CCCCNC(=O)CNC(=O)CNC(=O)CNC(=O)CNC(=O)CNC(=O)CCCCCCCCCCCCCCCCC(=O)O)C(=O)N[C@@H](CC(=O)O)C(=O)N[C@@H](CCCNC(=N)N)C(=O)NC(C)(C)C(=O)N[C@@H](C)C(=O)N[C@@H](CCC(N)=O)C(=O)NC(C)(C)C(=O)N[C@@H](CC(=O)O)C(=O)N[C@@H](Cc1ccccc1)C(=O)N[C@H](C(=O)N[C@@H](CC(N)=O)C(=O)N[C@@H](Cc1c[nH]c2ccccc12)C(=O)N[C@@H](CC(C)C)C(=O)N[C@@H](CC(C)C)C(=O)N[C@@H](C)C(=O)N[C@@H](CCC(N)=O)C(=O)N[C@@H](CCCNC(=N)N)C(=O)N1CCC[C@H]1C(=O)N[C@@H](CO)C(=O)N[C@@H](CO)C(=O)NCC(=O)N[C@@H](C)C(=O)N1CCC[C@H]1C(=O)N1CCC[C@H]1C(=O)N1CCC[C@H]1C(=O)N[C@@H](CO)C(N)=O)C(C)C)[C@@H](C)CC [Compound 276]	< 15	–
CC[C@H](C)[C@H](NC(=O)[C@H](CO)NC(=O)[C@H](Cc1ccc(O)cc1)NC(=O)[C@H](CC(C)C)NC(=O)[C@H](CO)NC(=O)[C@@H](NC(=O)[C@H](Cc1ccccc1)NC(=O)[C@@H](NC(=O)CNC(=O)[C@H](CCC(=O)O)NC(=O)C(C)(C)NC(=O)[C@H](Cc1ccc(O)cc1)NC)[C@@H](C)O)[C@@H](C)CC)C(=O)N[C@@H](C)C(=O)N[C@@H](CC(C)C)C(=O)N[C@@H](CC(=O)O)C(=O)N[C@@H](CCCNC(=N)N)C(=O)N[C@@H](CCCCNC(=O)CNC(=O)CNC(=O)CNC(=O)CNC(=O)CNC(=O)CNC(=O)CCCCCCCCCCCCCCCCC(=O)O)C(=O)N[C@@H](Cc1c[nH]cn1)C(=O)N[C@@H](CCC(N)=O)C(=O)NC(C)(C)C(=O)N[C@@H](CC(N)=O)C(=O)N[C@@H](Cc1ccccc1)C(=O)N[C@H](C(=O)N[C@@H](CC(N)=O)C(=O)N[C@@H](Cc1c[nH]c2ccccc12)C(=O)N[C@@H](CC(C)C)C(=O)N[C@@H](CC(C)C)C(=O)N[C@@H](C)C(=O)N[C@@H](CCC(N)=O)C(=O)N[C@@H](CCCNC(=N)N)C(=O)N1CCC[C@H]1C(=O)N[C@@H](CO)C(=O)N[C@@H](CO)C(=O)NCC(=O)N[C@@H](C)C(=O)N1CCC[C@H]1C(=O)N1CCC[C@H]1C(=O)N1CCC[C@H]1C(=O)N[C@@H](CO)C(=O)N[C@@H](CCCNC(=N)N)C(N)=O)C(C)C [Compound 277]	–	solubility (phosphate buffer): < 15 mg/mL
CC[C@H](C)[C@H](NC(=O)[C@H](CO)NC(=O)[C@H](Cc1ccc(O)cc1)NC(=O)[C@H](CC(=O)O)NC(=O)[C@H](CO)NC(=O)[C@@H](NC(=O)[C@H](Cc1ccccc1)NC(=O)[C@@H](NC(=O)CNC(=O)[C@H](CCC(N)=O)NC(=O)C(C)(C)NC(=O)[C@H](Cc1ccc(O)cc1)NC)[C@@H](C)O)[C@@H](C)CC)C(=O)N[C@@H](C)C(=O)N[C@@H](CC(C)C)C(=O)N[C@@H](CC(=O)O)C(=O)N[C@@H](CCCNC(=N)N)C(=O)N[C@@H](CCCCNC(=O)CNC(=O)CNC(=O)CNC(=O)CNC(=O)CNC(=O)CNC(=O)CCCCCCCCCCCCCCCCC(=O)O)C(=O)N[C@@H](Cc1c[nH]cn1)C(=O)N[C@@H](CCC(N)=O)C(=O)NC(C)(C)C(=O)N[C@@H](CC(N)=O)C(=O)N[C@@H](Cc1ccccc1)C(=O)N[C@H](C(=O)N[C@@H](CC(N)=O)C(=O)N[C@@H](Cc1c[nH]c2ccccc12)C(=O)N[C@@H](CC(C)C)C(=O)N[C@@H](CC(C)C)C(=O)N[C@@H](C)C(=O)N[C@@H](CCC(N)=O)C(=O)N[C@@H](CCCNC(=N)N)C(=O)N1CCC[C@H]1C(=O)N[C@@H](CO)C(=O)N[C@@H](CO)C(=O)NCC(=O)N[C@@H](C)C(=O)N1CCC[C@H]1C(=O)N1CCC[C@H]1C(=O)N1CCC[C@H]1C(=O)N[C@@H](CO)C(=O)N[C@@H](CCCNC(=N)N)C(N)=O)C(C)C [Compound 278]	< 15	–
